According to patent US9051568B2, “Anti-sense microrna expression vectors” (Rutgers, The State University of New Jersey, priority 2008, dated 2015):

Assays:
miR-199a = assay: Northern blotting of miR-199a in myocytes; assay type: cell-based, rat; settings: 100 μM, 16 h
From the text: g. […] Total RNA was then extracted and analyzed by Northern blotting for the miRNA indicated on the left (n=2).
(§1) Northern blotting—As previously described.

miR-21 = assay: Northern blotting of miR-21 in cardiocytes; assay type: cell-based; settings: isolated rat cardiocytes
From the text: as §1
In order to address the role of miR-21 in cardiocytes a 320 nt sequence that encompasses the miR-21 stem-loop was cloned into a recombinant adenovirus (FIG. 8a). A tandem repeat of the anti-sense sequence of mature miR-21 was also cloned under the control of the U6 promoter (FIG. 8a). […] For that reason this construct was dubbed ‘miR-21 eraser’.

cardiocytes = assay: Cellular outgrowths/branches of cultured cardiocytes; assay type: cell-based, rat; settings: cardiocytes treated with isoproterenol, titin staining
Protocol: Cell cultures and adenovirus Infection—Neonatal cardiac myocytes were prepared from Sprague Dawley rat hearts as previously described, using both pre-plating and percoll gradients for enriching of myocytes. Adult cardiac myocytes were prepared as previously described.
But after 48-72 h in culture extensive cellular outgrowths (4±3 branches/cell) were noticed that varied in length (44±28 μm) depending on the distance between neighboring cells (FIG. 8c). Sprouty, a known inhibitor of branching morphogenesis and neurite outgrowth, is predicted to be a miR-21 target by TargetScanS and PicTar miRNA target prediction software, each using a unique set of algorithms. To confirm its potential in mediating miR-21's branching effects, it was independently knocked down using adenoviral delivered short-hairpin RNA (see FIG. 8e).
The physiological relevance of these miR-21-induced outgrowths were assessed. After treatment of the cells with isoproterenol and staining them with an antibody against the sarcomeric protein titin, cellular outgrowth that were connecting or reaching out to adjacent cells was observed (FIG. 9a). The striated pattern of titin staining reflects the presence of sarcomeres even within these branches. This effect was wide spread in all observed fields (4±3 branches/cell). Impressively, these outgrowths were abrogated by the miR-21 eraser or over-expression of SPRY2 (FIG. 9a). […]

SPRY2 = SPRY2 protein in cardiocytes (Western blot, immunostaining); assay type: cell-based, rat; settings: isoproterenol and β2AR
From the text: Using Western blot analysis down-regulation of endogenous SPRY2 (52±4%) was confirmed upon over-expression of miR-21 for 48 hr (FIG. 8d). Since sprouty negatively regulates erk1/2, phospho-erk1/2 was used as a marker for monitoring changes in Spry2 function that would be regulated by changes in its levels. […] Thus, SPRY2 is a downstream target of miR-21 (could be a direct or indirect target at this juncture) and has limiting cellular concentrations.
The physiological relevance of these miR-21-induced outgrowths were assessed. After treatment of the cells with isoproterenol and staining them with an antibody against the sarcomeric protein titin, cellular outgrowth that were connecting or reaching out to adjacent cells was observed (FIG. 9a). The striated pattern of titin staining reflects the presence of sarcomeres even within these branches. This effect was wide spread in all observed fields (4±3 branches/cell). Impressively, these outgrowths were abrogated by the miR-21 eraser or over-expression of SPRY2 (FIG. 9a). […] Similar results were obtained when cells were treated the a virus over-expressing β2AR (supplementary FIG. 9s). While FIG. 7 confirms that isoproterenol and β2AR induce upregulation of miR-21, FIG. 9b confirms that they also induce 70±22% downregulation of SPRY2 protein (FIG. 9b). […]

[1] = test system: prolyl hydroxylase 2 (PHD2); assay: PHD2 protein in myocytes by Western blotting; assay type: cell-based, rat; settings: myocytes overexpressing Sirt1, 20 mM
Protocol: b. Myocytes were treated as described in (a.) and as indicated in the grid by + signs. Protein was extracted and analyzed by Western blotting (n=3).
d. Myocytes were subjected to 24 h anoxia or HPC, before or after treatment with a control or miR-199a-expressing virus for 24 h where indicated by + signs. Protein was extracted and analyzed by Western blotting for the molecules indicated on the left.
e. Myocytes were treated with a control or Sirt1-overexpressing virus in the absence or presence or 20 mM nicotinamide (NAM). Protein was extracted and analyzed by Western blotting (n=3).
(§2) Cellular fractionation and Western blotting—Mitochondria was isolated using ProteoExtract Cytosol/Mitochondria Fractionation Kit (Calbiochem, NJ), according to the manufacturer's protocol. Fifteen μg of protein was separated on a 4% to 20% gradient SDS-PAGE (Criterion gels, Bio-Rad, CA) and transferred onto TransBlot Transfer membrane (Bio-Rad, CA).

Sirt1 = Sirt1 protein in myocytes by Western blotting; assay type: cell-based, rat; settings: 40 μM, 24 h
Protocol: c. […] Protein was then extracted and analyzed by Western blotting.
b. Cultured adult rat cardiac myocytes were treated with miR-199a eraser for 24 h or HPC. Protein was extracted and analyzed by Western blotting for the molecules indicated on the left of each panel (n=3).
as §2

Nc1ncnc2c1ncn2[C@@H]1O[C@H](CO)[C@@H](O)[C@H]1O [adenosine]
miR-199a level (miR-199a): downregulation

CC(C)NCC(O)c1ccc(O)c(O)c1 (stereo not drawn) [isoproterenol]
miR-21 level (miR-21): upregulation
cellular outgrowths (cardiocytes): 4±3 branches/cell
downregulation of SPRY2 protein (SPRY2): 70±22%

NC(=O)c1cccnc1 [nicotinamide]
Sirt1-induced knockdown of PHD2 [1]: reversed

Oc1ccc(C=Cc2cc(O)cc(O)c2)cc1 [resveratrol]
Sirt1 expression (Sirt1): increase
